Experimental data: publication PMC6581923 (Journal of Molecular Neuroscience, 2018)
Read-outs that look alike come from different tables or passages of the source.

Experiments:
PAC1-R = biological target: T1, PAC1-R (Homo sapiens, UniProt P41586); test: cAMP accumulation assay in PAC1-CHO cells; assay type: cell-based
T1 construct: expressed in transfected cells; host or cells: PAC1-CHO cells (CHO cells expressing PAC1-R); That they are transfected is inferred from the cell line's name
T1 sequence (P41586 21-468): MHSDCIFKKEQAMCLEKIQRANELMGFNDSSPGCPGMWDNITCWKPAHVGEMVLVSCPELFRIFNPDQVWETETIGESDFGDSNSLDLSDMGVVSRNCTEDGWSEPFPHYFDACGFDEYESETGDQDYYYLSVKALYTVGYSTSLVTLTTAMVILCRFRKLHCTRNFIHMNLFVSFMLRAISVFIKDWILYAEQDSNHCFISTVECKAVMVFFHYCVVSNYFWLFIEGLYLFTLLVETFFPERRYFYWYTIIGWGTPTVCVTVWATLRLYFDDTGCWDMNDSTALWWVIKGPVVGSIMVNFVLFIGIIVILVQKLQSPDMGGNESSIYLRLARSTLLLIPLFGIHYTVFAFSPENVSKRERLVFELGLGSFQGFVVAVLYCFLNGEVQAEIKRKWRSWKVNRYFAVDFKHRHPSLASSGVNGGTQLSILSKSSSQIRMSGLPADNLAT
Protocol: PAC1-CHO cells cultured in Dulbecco’s Modified Eagle’s Medium (DMEM) at 37 °C were scraped off the surface with rubber policeman, washed twice with PBS and the density of the cells was adjusted to 2 × 10^6 /mL. Peptides were added to 500 uL cells suspension with the corresponding varying working concentrations of the detected factor. After incubation at 37 °C for 5-10 min cells were harvested and the lysates were subjected to cAMP quantification using the enzyme immunoassay kit for cAMP (Biyuntian, Shanghai, China), following the manufacturer’s instructions. Protein concentration of each sample was determined using BCA assay, and the cAMP level of each sample was calculated following the formula: cAMP level (pmol/mg protein) = cAMP concentration (pmol/mL)/protein concentration (mg/mL). The cAMP level in each sample was plotted as the percentage (%) of the maximal cAMP level in cells treated with PACAP27 versus the logarithmic value of the peptide concentrations. All experiments were run with at least four parallel samples and were repeated three times.
The data are means ± SEM of four experiments

[1] = system: retina (BCCAO-induced retinopathy); test: Number of cells in retinal nuclear layers and GCL after BCCAO, eye drops; assay type: in vivo, rat (male); details: eye drops 1 μg/drop, twice a day, five days, vs BCCAO-induced degenerated retinas, 14 days
Protocol: Adult male rat litters were housed in the animal facility in individual cages in a 12 h light-dark cycle with food and water ad libitum. Animal housing, care and application of experimental procedures were in accordance with institutional guidelines under approved protocols (No: BA02/2000–26/2017, University of Pecs). Under isoflurane anesthesia, common carotid arteries were exposed on both sides through a midline incision and then ligated with a 3–0 filament. A group of animals (sham group) underwent all steps of the operating procedure except ligation of the carotid arteries. Immediately following the operation, the right eye of the animals was treated with derivatives of PACAP (PACAP-TAT /n = 17/ or VIP-TAT /n = 17/) eye drops (1 μg/drop). Dose and schedule of the eye drop treatments were based on our previous experiments (Werling et al. [2016]). In the experiment for histological analysis, the different derivatives were dissolved in benzalkonium solution for ophthalmic use (solutio ophthalmica cum benzalkonio (SOCB)). The left eye, serving as a control, was treated with vehicle containing neither PACAP-TAT nor VIP-TAT. Animals were treated for five consecutive days, twice a day with one drop of drug, under brief isoflurane anesthesia (max. 5 min).
Fourteen days after the operation, rats (n = 10 SHAM and n = 24 BCCAO) were killed with anesthetic and the eyes were processed for histology. The eyes were removed and the retinas were solved in phosphate buffered saline (PBS), fixed in 4% paraformaldehyde dissolved in 0.1 M phosphate buffer (PB) (Sigma, Budapest, Hungary) and embedded in Durcupan ACM resin (Sigma, Budapest, Hungary). Retinas were cut at 2 μm and stained with toluidine blue dye (Sigma, Hungary). Sections were mounted in DPX medium (Sigma, Hungary) and photographs were taken with a digital CCD camera using the Spot program. Central retinal areas within 1 mm from the optic nerve were used (n = 5 measurements from one tissue block). The following parameters were measured: (i) cross-section of the retina from the outer limiting membrane (OLM) to the inner limiting membrane (ILM), (ii) the width of individual retinal layers (outer nuclear layer [ONL], outer plexiform layer [OPL], inner nuclear layer [INL], inner plexiform layer [IPL]), (iii) the number of cells/100 μm section length in the GCL, and the (iv) number of cells/[…]. Results are presented as mean ± SEM. Statistical comparisons were made using the two-way ANOVA test followed by Tukey’s post hoc analysis.
(§1) Fig. 5 Quantification of the number of cells/100 μm GCL length (a), the number of cells/500 μm^2 ONL (b) and INL (c) areas in SHAM+SOCB, in SHAM+PACAP-TAT, in BCCAO+SOCB, and in BCCAO+PACAP-TAT animals. Statistical significance (*p < 0.05 vs. SHAM+SOCB retinas, #p < 0.05 vs. BCCAO+SOCB retinas) was calculated by two-way ANOVA followed by Bonferroni’s post hoc test
as §1, with “Fig. 7” for “Fig. 5”, “in SHAM+VIP-TAT,” for “in SHAM+PACAP-TAT,”, “in BCCAO+VIP-TAT” for “in BCCAO+PACAP-TAT”

PAC1 receptor = system: PAC1 receptor; set-up: method as in 2 sources, one per row (each row's own in cited_ref): ref Yu et al. [2014] ||| ref Vaudry et al. [2009]; details: vs VIP, ref Yu et al. [2014], cited from earlier work
Description: The retinoprotective effects of PACAP are well-documented and have been proven in different injury models, such as excitotoxic, ischemic, UV light-induced, traumatic, diabetic and oxygen-induced injuries (Atlasz et al. [2008], [2011], [2016]; Kvarik et al. [2016]; Shioda et al. [2016]; Szabadfi et al. [2016]; Vaczy et al. [2016]). […] P ...

## CC[C@H](C)[C@H](NC(=O)[C@H](CO)NC(=O)[C@H](CC(N)=O)NC(=O)[C@H](CC(C)C)NC(=O)[C@H](Cc1ccc(O)cc1)NC(=O)[C@H](CCCCN)NC(=O)[C@H](CCCCN)NC(=O)[C@@H](NC(=O)[C@H](C)NC(=O)[C@H](CCSC)NC(=O)[C@H](CCC(N)=O)NC(=O)[C@H](CCCCN)NC(=O)[C@H](CCCNC(=N)N)NC(=O)[C@H](CC(C)C)NC(=O)[C@H](CCCNC(=N)N)NC(=O)[C@@H](NC(=O)[C@H](Cc1ccc(O)cc1)NC(=O)[C@H](CC(N)=O)NC(=O)[C@H](CC(=O)O)NC(=O)[C@@H](NC(=O)[C@H](Cc1ccccc1)NC(=O)[C@@H](NC(=O)[C@H](C)NC(=O)[C@H](CC(=O)O)NC(=O)[C@H](CO)NC(=O)[C@@H](N)Cc1c[nH]cn1)C(C)C)[C@@H](C)O)[C@@H](C)O)C(C)C)C(=O)N[C@@H](CC(C)C)C(=O)N[C@@H](CC(N)=O)C(=O)NCC(=O)N[C@@H](CCCNC(=N)N)C(=O)N[C@@H](CCCCN)C(=O)N[C@@H](CCCCN)C(=O)N[C@@H](CCCNC(=N)N)C(=O)N[C@@H](CCCNC(=N)N)C(=O)N[C@@H](CCC(N)=O)C(=O)N[C@@H](CCCNC(=N)N)C(=O)N[C@@H](CCCNC(=N)N)C(=O)N[C@@H](CCCNC(=N)N)C(=O)N1CCC[C@H]1C(=O)N[C@@H](CCC(N)=O)C(=O)O [VIP-TAT]
PAC1-R; VIP-TAT vs VIP
  EC50 as fraction of the EC50 of VIP: about 1/200
PAC1-R; tagged vs untagged peptide
  Effect of TAT-tagging on activation of PAC1-R (cAMP), in words: enhanced the activity of VIP on the activation of PAC1-R
[1]
  Number of cells in the GCL/100 μm after BCCAO: reduced cell loss in almost all nuclear layers, except in the ONL/500 μm2
  Number of cells in the INL/500 μm2 after BCCAO: reduced cell loss in almost all nuclear layers, except in the ONL/500 μm2
PAC1 receptor
  Activity on / affinity for PAC1 receptor relative to VIP: higher activity on the activation of PACAP preferring PAC1receptor than VIP
PAC1 receptor; listed as VIP bound to TAT peptide
  Activity on / affinity for PAC1 receptor relative to VIP: higher affinity for PAC1-R
